PubChem BioAssay (NCI)
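GI50: concentration for 50% inhibition of growth. At the TGI there is no net growth.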

Legend:
Assay in all cases: inhibition of tumour cell growth, NCI panel, 384-well format
786-0 renal = tested on: 786-0 renal
A498 renal = tested on: A498 renal
A549 NSCLC = tested on: A549 NSCLC
ACHN renal = tested on: ACHN renal
BT-549 breast = tested on: BT-549 breast
CAKI-1 renal = tested on: CAKI-1 renal
CCRF-CEM leukemia = tested on: CCRF-CEM leukemia
COLO 205 colon = tested on: COLO 205 colon
DU-145 prostate = tested on: DU-145 prostate
EKVX NSCLC = tested on: EKVX NSCLC
HCC-2998 colon = tested on: HCC-2998 colon
HCT-116 colon = tested on: HCT-116 colon
HCT-15 colon = tested on: HCT-15 colon
HL-60(TB) leukemia = tested on: HL-60(TB) leukemia
HOP-62 NSCLC = tested on: HOP-62 NSCLC
HOP-92 NSCLC = tested on: HOP-92 NSCLC
HS 578T breast = tested on: HS 578T breast
HT29 colon = tested on: HT29 colon
IGROV1 ovarian = tested on: IGROV1 ovarian
KM12 colon = tested on: KM12 colon
LOX IMVI melanoma = tested on: LOX IMVI melanoma
M14 melanoma = tested on: M14 melanoma
MALME-3M melanoma = tested on: MALME-3M melanoma
MCF7 breast = tested on: MCF7 breast
MDA-MB-435 melanoma = tested on: MDA-MB-435 melanoma
MDA-MB-468 breast = tested on: MDA-MB-468 breast
MOLT-4 leukemia = tested on: MOLT-4 leukemia
NCI-H226 lung = tested on: NCI-H226 lung
NCI-H23 lung = tested on: NCI-H23 lung
NCI-H322M lung = tested on: NCI-H322M lung
NCI-H460 NSCLC = tested on: NCI-H460 NSCLC
NCI-H522 lung = tested on: NCI-H522 lung
NCI/ADR-RES ovarian = tested on: NCI/ADR-RES ovarian
OVCAR-3 ovarian = tested on: OVCAR-3 ovarian
OVCAR-4 ovarian = tested on: OVCAR-4 ovarian
OVCAR-8 ovarian = tested on: OVCAR-8 ovarian
PC-3 prostate = tested on: PC-3 prostate
RPMI-8226 leukemia = tested on: RPMI-8226 leukemia
RXF 393 renal = tested on: RXF 393 renal
SF-268 CNS = tested on: SF-268 CNS
SF-295 CNS = tested on: SF-295 CNS
SF-539 CNS = tested on: SF-539 CNS
SK-MEL-2 melanoma = tested on: SK-MEL-2 melanoma
SK-MEL-28 melanoma = tested on: SK-MEL-28 melanoma
SK-MEL-5 melanoma = tested on: SK-MEL-5 melanoma
SK-OV-3 ovarian = tested on: SK-OV-3 ovarian
SN12C renal = tested on: SN12C renal
SNB-19 CNS = tested on: SNB-19 CNS
SNB-75 CNS = tested on: SNB-75 CNS
SW-620 colon = tested on: SW-620 colon
TK-10 renal = tested on: TK-10 renal
U251 glioblastoma = tested on: U251 glioblastoma
UACC-257 melanoma = tested on: UACC-257 melanoma
UACC-62 melanoma = tested on: UACC-62 melanoma

For `O=C1c2ccccc2C(=O)C(Cl)C1Cl` (stereo not drawn), the GI50 (786-0 renal) was 1870 nM, the TGI (786-0 renal) was 4.85 µM and the GI50 (A498 renal) was 17.7 µM. The TGI (A498 renal) was 31.6 µM, the GI50 (A549 NSCLC) was 15.1 µM and the TGI (A549 NSCLC) was 28.7 µM. The GI50 (ACHN renal) was 1380 nM, the TGI (ACHN renal) was 2680 nM and the GI50 (BT-549 breast) was 1560 nM. The TGI (BT-549 breast) was 2910 nM, the GI50 (CAKI-1 renal) was 1660 nM and the TGI (CAKI-1 renal) was 3.03 µM. For the same compound, the GI50 (CCRF-CEM leukemia) was 1490 nM, the TGI (CCRF-CEM leukemia) was 2840 nM and the GI50 (COLO 205 colon) was 1840 nM. It also gave a TGI (COLO 205 colon) of 3.26 µM, a GI50 (DU-145 prostate) of 1150 nM and a TGI (DU-145 prostate) of 2550 nM. The GI50 (EKVX NSCLC) was 7.02 µM, the TGI (EKVX NSCLC) was 20.4 µM and the GI50 (HCC-2998 colon) was 14.1 µM. It also gave a TGI (HCC-2998 colon) of 27.2 µM, a GI50 (HCT-116 colon) of 1620 nM and a TGI (HCT-116 colon) of 3.01 µM. For the same compound, the GI50 (HCT-15 colon) was 1420 nM, the TGI (HCT-15 colon) was 2750 nM and the GI50 (HL-60(TB) leukemia) was 243 nM. For the same compound, the TGI (HL-60(TB) leukemia) was 743 nM, the GI50 (HOP-62 NSCLC) was 3.33 µM and the TGI (HOP-62 NSCLC) was 11.3 µM. It also gave a GI50 (HOP-92 NSCLC) of 1640 nM, a TGI (HOP-92 NSCLC) of 3 µM and a GI50 (HS 578T breast) of 12.7 µM. For the same compound, the TGI (HS 578T breast) was 25.3 µM, the GI50 (HT29 colon) was 2780 nM and the TGI (HT29 colon) was 8.03 µM. For the same compound, the GI50 (IGROV1 ovarian) was 1330 nM, the TGI (IGROV1 ovarian) was 4.33 µM and the GI50 (KM12 colon) was 13.7 µM. For the same compound, the TGI (KM12 colon) was 26.8 µM, the GI50 (LOX IMVI melanoma) was 96.7 nM and the TGI (LOX IMVI melanoma) was 17.4 µM. The GI50 (M14 melanoma) was 1890 nM, the TGI (M14 melanoma) was 3.39 µM and the GI50 (MALME-3M melanoma) was 1760 nM. The TGI (MALME-3M melanoma) was 3.15 µM, the GI50 (MCF7 breast) was 1390 nM and the TGI (MCF7 breast) was 2720 nM. It also gave a GI50 (MDA-MB-435 melanoma) of 1830 nM, a TGI (MDA-MB-435 melanoma) of 3.4 µM and a GI50 (MDA-MB-468 breast) of 1530 nM. The TGI (MDA-MB-468 breast) was 2870 nM, the GI50 (MOLT-4 leukemia) was 1360 nM and the TGI (MOLT-4 leukemia) was 2650 nM. The GI50 (NCI-H226 lung) was 1410 nM, the TGI (NCI-H226 lung) was 2770 nM and the GI50 (NCI-H23 lung) was 1760 nM. For the same compound, the TGI (NCI-H23 lung) was 3.92 µM, the GI50 (NCI-H322M lung) was 16.3 µM and the TGI (NCI-H322M lung) was 30 µM. For the same compound, the GI50 (NCI-H460 NSCLC) was 14 µM, the TGI (NCI-H460 NSCLC) was 27.2 µM and the GI50 (NCI-H522 lung) was 1500 nM. The TGI (NCI-H522 lung) was 2840 nM, the GI50 (NCI/ADR-RES ovarian) was 11.2 µM and the TGI (NCI/ADR-RES ovarian) was 23.3 µM. For the same compound, the GI50 (OVCAR-3 ovarian) was 1600 nM, the TGI (OVCAR-3 ovarian) was 2950 nM and the GI50 (OVCAR-4 ovarian) was 1210 nM. The TGI (OVCAR-4 ovarian) was 2460 nM, the GI50 (OVCAR-8 ovarian) was 1670 nM and the TGI (OVCAR-8 ovarian) was 3.07 µM. It also gave a GI50 (PC-3 prostate) of 1730 nM, a TGI (PC-3 prostate) of 3.59 µM and a GI50 (RPMI-8226 leukemia) of 1550 nM. For the same compound, the TGI (RPMI-8226 leukemia) was 2900 nM, the GI50 (RXF 393 renal) was 1630 nM and the TGI (RXF 393 renal) was 3 µM. The GI50 (SF-268 CNS) was 13.9 µM, the TGI (SF-268 CNS) was 27 µM and the GI50 (SF-295 CNS) was 15.2 µM. It also gave a TGI (SF-295 CNS) of 28.5 µM, a GI50 (SF-539 CNS) of 1690 nM and a TGI (SF-539 CNS) of 3.08 µM. For the same compound, the GI50 (SK-MEL-2 melanoma) was 1910 nM, the TGI (SK-MEL-2 melanoma) was 3.32 µM and the GI50 (SK-MEL-28 melanoma) was 3.24 µM. For the same compound, the TGI (SK-MEL-28 melanoma) was 9.55 µM, the GI50 (SK-MEL-5 melanoma) was 2310 nM and the TGI (SK-MEL-5 melanoma) was 9.5 µM. For the same compound, the GI50 (SK-OV-3 ovarian) was 13.2 µM, the TGI (SK-OV-3 ovarian) was 26.1 µM and the GI50 (SN12C renal) was 1810 nM. It also gave a TGI (SN12C renal) of 3.46 µM, a GI50 (SNB-19 CNS) of 14.1 µM and a TGI (SNB-19 CNS) of 27.2 µM. It also gave a GI50 (SNB-75 CNS) of 7.16 µM, a TGI (SNB-75 CNS) of 20.5 µM and a GI50 (SW-620 colon) of 1630 nM. For the same compound, the TGI (SW-620 colon) was 3.02 µM, the GI50 (TK-10 renal) was 1580 nM and the TGI (TK-10 renal) was 2930 nM. The GI50 (U251 glioblastoma) was 16.2 µM, the TGI (U251 glioblastoma) was 30 µM and the GI50 (UACC-257 melanoma) was 1940 nM. It also gave a TGI (UACC-257 melanoma) of 3.36 µM, a GI50 (UACC-62 melanoma) of 1370 nM and a TGI (UACC-62 melanoma) of 2850 nM.
